Experimental data taken from publication PMC11413854, “Reversible Control of Native GluN2B-Containing NMDA Receptors with Visible Light” (ACS Chemical Neuroscience, 2024).
Values joined by “and” are separate entries in the source; they are usually repeats but may differ in a detail not shown here. Identical values can stand only once. Like-named read-outs stand apart in the source and are kept apart here.

Molecular target: T1, GluN1/GluN2B NMDA receptors (UniProt P35439+Q01097)
T1 construct: expressed in transfected cells; host or cells: Xenopus laevis oocytes (nuclear cDNA injection)
Assay: TEVC electrophysiology on Xenopus oocytes expressing wt GluN1/GluN2B NMDARs
Format: cell-based, rat GluN1, mouse GluN2B
Conditions: for inhibition of GluN1/GluN2B wt: 1 µM trans-OptoNAM-3 (dark); for IC50: 100 µM glutamate + glycine, Xenopus oocytes; for remaining activity at 1 µM: [OptoNAM-3] 1 µM; for remaining activity at 3 µM: [OptoNAM-3] 3 µM; for remaining activity at 5 µM: [OptoNAM-3] 5 µM; for remaining activity at 0.025 µM: [OptoNAM-3] 0.025 µM; for remaining activity at 0.05 µM: [OptoNAM-3] 0.05 µM; for remaining activity at 0.22 µM: [OptoNAM-3] 0.22 µM; for remaining activity at 30 µM: [OptoNAM-3] 30 µM; for Relative current for theoretical DRC 9% trans: theoretical for 350 nm PSS
From the text: The activity of OptoNAM-3 was functionally monitored by electrophysiology on Xenopus oocytes (see Methods). To assess the light-dependent effect, we tested the activities of the dark PSS (mostly trans) and the UV PSS (mostly cis, see above) separately. For each concentration, we prepared a solution divided into two samples: one in which the compound was kept in the dark for the duration of the experiment (dark PSS state); and the other that was preilluminated with either 350 or 365 nm light (350 or 365 nm PSS) and then kept away from the light for the duration of the experiment in order to avoid photoisomerization of the compounds by ambient light (see Methods). […] We generated dose–response curves of OptoNAM-3 dark and UV PSS on wild-type (wt) GluN1/GluN2B NMDA receptors (Figure 3A) in the presence of saturating concentrations of agonists (100 μM glutamate and glycine).
We used cDNA coding for rat GluN1–1a (named GluN1 herein) (GenBank: U08261.1), rat GluN2A (GenBank: D13211.1), mouse GluN2B (GenBank: D10651.2), rat GluA1 flop (GenBank: M36418.2), and rat Myc-GluA2(Q)-flip (GenBank: AF164344.1) cloned into pcDNA3-based expression plasmids. GluK2 (GenBank: Z11548.1) corresponds to the fully RNA-edited version.[80] The GluN2B-ΔNTD construct is from ref[45] and GluN2B–N615K is from ref[81]. Single mutants GluN2B-Q110G and GluN1-L135H were from ref[19]. The GluA2 cDNA contains a Myc tag ([…]) fused between the signal peptide and the N-terminus sequences, and the GluA2 subunit is […] for its Q/R/N site (GluA2(Q)) to allow permeation of homomeric GluA2 receptors.[2] cDNAs coding for rat GluN2C (GenBank: M91563.1) and GluN2D subunits (GenBank: L31611.1) were in prK5 plasmids.
Oocytes from Xenopus laevis were used for heterologous expression of recombinant NMDA receptors studied using a two-electrode voltage clamp (TEVC). Female Xenopus laevis were housed and ovary bags harvested according to the European Union guidelines (husbandry authorizations #C75–05–31 and #D75–05–31; project authorizations #05137.02; and Apafis #28867–2020121814485893). Fragments of ovary bags were also purchased from the “Centre de Ressources Biologiques Xenopes” (now TEFOR, Paris Saclay, France) and from the European Xenopus Resource Center (EXRC, Portsmouth, UK). Xenopus laevis oocytes were harvested and prepared as previously described in ref[82].
Expression of recombinant NMDA receptors was obtained by oocyte nuclear coinjection of 37 nL of a mixture of cDNAs (at 30 ng/μL) coding for GluN1–1a and various GluN2 subunits (ratio 1:1). The protocol in ref[43] was followed for the expression of GluN1/GluN2A/GluN2B triheteromers. The oocytes were transferred in 96-well plates filled with Barth solution (in mM: 88 NaCl, 1 KCl, 0.33 Ca(NO3)2, 0.41 CaCl2, 0.82 MgSO4, 2.4 NaHCO3, and 7.5 HEPES, pH adjusted to 7.3 with NaOH), supplemented with gentamicin ([…]) and 50 μM APV, a selective NMDA receptor antagonist. Plates were then stored at 18 °C for 24 h for GluN1/GluN2A expression and for 48––72 h for the expression of GluN1/Glu2B, GluN1/GluN2A/GluN2B, and mutants.
TEVC recordings were performed 1–3 days following injection. TEVC recordings were performed using an Oocyte Clamp amplifier OC-725 (Warner Instruments) and computer-controlled via a 1440A Digidata (Molecular Devices). Currents were sampled at 100 Hz and low-pass-filtered at 20 Hz using an 8-pole Bessel filter (900 Series, Frequency Devices Inc.).

[1] = GluN1/GluN2B wt, OptoNAM-3 350 nm PSS, read-out: Relative current (IOpto/I0)
[2] = GluN1/GluN2B wt, OptoNAM-3 365 nm PSS, read-out: Relative current (IOpto/I0)
[3] = GluN1/GluN2B wt, OptoNAM-3 dark PSS (trans), read-out: Relative current (IOpto/I0)

T1 sequence (Q01097 27-1482, other chains not shown): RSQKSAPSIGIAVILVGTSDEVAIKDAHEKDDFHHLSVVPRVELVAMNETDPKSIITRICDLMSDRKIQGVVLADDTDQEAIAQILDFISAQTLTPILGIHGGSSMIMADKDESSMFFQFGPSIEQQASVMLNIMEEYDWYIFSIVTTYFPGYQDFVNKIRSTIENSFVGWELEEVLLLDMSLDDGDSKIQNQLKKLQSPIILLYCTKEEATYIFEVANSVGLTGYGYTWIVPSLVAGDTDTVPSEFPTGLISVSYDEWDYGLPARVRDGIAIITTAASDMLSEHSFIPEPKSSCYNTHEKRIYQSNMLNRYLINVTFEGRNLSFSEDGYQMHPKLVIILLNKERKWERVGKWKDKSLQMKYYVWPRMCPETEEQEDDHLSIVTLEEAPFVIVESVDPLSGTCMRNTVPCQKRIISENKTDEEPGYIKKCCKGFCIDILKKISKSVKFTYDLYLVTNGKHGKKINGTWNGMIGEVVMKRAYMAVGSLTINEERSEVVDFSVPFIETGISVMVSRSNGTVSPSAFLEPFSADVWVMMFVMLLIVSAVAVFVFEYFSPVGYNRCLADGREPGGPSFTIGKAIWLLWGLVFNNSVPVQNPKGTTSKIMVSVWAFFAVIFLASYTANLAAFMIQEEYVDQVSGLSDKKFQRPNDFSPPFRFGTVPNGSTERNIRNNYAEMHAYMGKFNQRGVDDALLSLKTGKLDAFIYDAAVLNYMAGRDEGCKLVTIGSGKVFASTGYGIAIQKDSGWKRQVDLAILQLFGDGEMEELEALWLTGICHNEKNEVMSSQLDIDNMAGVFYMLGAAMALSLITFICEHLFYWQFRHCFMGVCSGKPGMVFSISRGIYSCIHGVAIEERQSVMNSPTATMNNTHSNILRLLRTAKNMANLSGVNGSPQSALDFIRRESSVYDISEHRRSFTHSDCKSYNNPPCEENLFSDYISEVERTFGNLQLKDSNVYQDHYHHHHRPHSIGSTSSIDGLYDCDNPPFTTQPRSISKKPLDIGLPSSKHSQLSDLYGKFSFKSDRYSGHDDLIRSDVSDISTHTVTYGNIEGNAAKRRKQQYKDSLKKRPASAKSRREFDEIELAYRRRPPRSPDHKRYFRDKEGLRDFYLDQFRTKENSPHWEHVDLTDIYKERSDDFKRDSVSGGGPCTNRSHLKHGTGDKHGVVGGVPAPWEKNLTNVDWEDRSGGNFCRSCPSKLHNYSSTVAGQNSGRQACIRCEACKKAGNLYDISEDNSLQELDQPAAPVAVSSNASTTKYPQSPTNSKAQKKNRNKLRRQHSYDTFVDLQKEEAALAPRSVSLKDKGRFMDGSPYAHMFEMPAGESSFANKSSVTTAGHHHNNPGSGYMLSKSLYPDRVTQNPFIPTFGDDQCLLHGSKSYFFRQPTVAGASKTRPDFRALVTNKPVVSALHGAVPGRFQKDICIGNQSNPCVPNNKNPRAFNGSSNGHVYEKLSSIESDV

c1ccc(/N=N/c2ccc(CCNc3ccncc3)cc2)cc1 [OptoNAM-3, (E)-N-(4-(Phenyldiazenyl)phenethyl)pyridin-4-amine]
Relative current for theoretical 100% cis (0.025 µM, calculated from the 365 nm PSS curve): 0.953
Relative current for theoretical 100% cis (0.050 µM, calculated from the 365 nm PSS curve): 0.945
Relative current for theoretical 100% cis (0.125 µM, calculated from the 350 nm PSS curve): 0.949
Relative current for theoretical 100% cis (0.125 µM, calculated from the 365 nm PSS curve): 0.988
Relative current for theoretical 100% cis (0.220 µM, calculated from the 365 nm PSS curve): 1.000
Relative current for theoretical 100% cis (0.300 µM, calculated from the 350 nm PSS curve): 1.005
Relative current for theoretical 100% cis (0.300 µM, calculated from the 365 nm PSS curve): 0.993
Relative current for theoretical 100% cis (0.470 µM, calculated from the 350 nm PSS curve): 1.025
Relative current for theoretical 100% cis (0.500 µM, calculated from the 365 nm PSS curve): 0.891
inhibition of GluN1/GluN2B wt: 69.305%
inhibition of GluN1/GluN2B wt (listed as trans-OptoNAM-3): 69% ± 2%
Relative current for theoretical 100% cis (1.000 µM, calculated from the 350 nm PSS curve): 1.085
Relative current for theoretical 100% cis (1.000 µM, calculated from the 365 nm PSS curve): 0.988
Relative current for theoretical 100% cis (2.000 µM, calculated from the 350 nm PSS curve): 1.000
Relative current for theoretical 100% cis (2.000 µM, calculated from the 365 nm PSS curve): 0.933
Relative current for theoretical 100% cis (3.000 µM, calculated from the 350 nm PSS curve): 1.043
Relative current for theoretical 100% cis (3.000 µM, calculated from the 365 nm PSS curve): 0.959
Relative current for theoretical 100% cis (5.000 µM, calculated from the 350 nm PSS curve): 0.994
Relative current for theoretical 100% cis (5.000 µM, calculated from the 365 nm PSS curve): 0.960
inhibition at 10 µM (10 µM OptoNAM-3 365 nm PSS, construct GluN1/GluN2B, read-out: Inhibition (%)): 68%
Inhibition, individual values (10 µM OptoNAM-3 dark PSS (trans) as headed, GluN1/GluN2B, single cells, second block): 0.6438 and 0.6778 and 0.6833 and 0.7763
inhibition at 10 µM (10 µM OptoNAM-3 dark PSS (trans) as headed, GluN1/GluN2B, single cells, second block, read-out: Inhibition, individual values): 63.8%
Inhibition, individual values (10 µM OptoNAM-3 dark PSS (trans), GluN1/GluN2B, single cells, first block): 0.9137 and 0.9546 and 0.9747
inhibition at 10 µM (10 µM OptoNAM-3 dark PSS (trans), GluN1/GluN2B, single cells, first block, read-out: Inhibition, individual values): 92.7%
inhibition at 10 µM (10 µM OptoNAM-3 dark PSS (trans), construct GluN1/GluN2B, read-out: Inhibition (%)): 94%
Relative current for theoretical 100% cis (30.000 µM, calculated from the 365 nm PSS curve): 0.961
IC50 (350 nm PSS, read-out: IC50 on GluN1/GluN2B receptors, preilluminated with 350 nm): 4.4 µM and 4.38 µM
IC50 (365 nm PSS, read-out: IC50 on GluN1/GluN2B receptors, preilluminated with 365 nm): 1.7 µM
remaining activity at 0.125 µM (GluN1/GluN2B wt, OptoNAM-3 350 nm PSS, [OptoNAM-3] 0.125 µM, read-out: Relative current (IOpto/I0)): 90.7%
remaining activity at 0.3 µM (GluN1/GluN2B wt, OptoNAM-3 350 nm PSS, [OptoNAM-3] 0.3 µM, read-out: Relative current (IOpto/I0)): 91.8%
remaining activity at 0.47 µM (GluN1/GluN2B wt, OptoNAM-3 350 nm PSS, [OptoNAM-3] 0.47 µM, read-out: Relative current (IOpto/I0)): 90%
remaining activity at 1 µM [1]: 86%
remaining activity at 2 µM (GluN1/GluN2B wt, OptoNAM-3 350 nm PSS, [OptoNAM-3] 2 µM, read-out: Relative current (IOpto/I0)): 65.6%
remaining activity at 3 µM [1]: 61.3%
remaining activity at 5 µM [1]: 44.6%
remaining activity at 0.025 µM [2]: 93.3%
remaining activity at 0.05 µM [2]: 91%
remaining activity at 0.125 µM (GluN1/GluN2B wt, OptoNAM-3 365 nm PSS, [OptoNAM-3] 0.125 µM, read-out: Relative current (IOpto/I0)): 91.2%
remaining activity at 0.22 µM [2]: 88%
remaining activity at 0.3 µM (GluN1/GluN2B wt, OptoNAM-3 365 nm PSS, [OptoNAM-3] 0.3 µM, read-out: Relative current (IOpto/I0)): 84.1%
remaining activity at 0.5 µM (GluN1/GluN2B wt, OptoNAM-3 365 nm PSS, [OptoNAM-3] 0.5 µM, read-out: Relative current (IOpto/I0)): 66.6%
remaining activity at 1 µM [2]: 64.4%
remaining activity at 2 µM (GluN1/GluN2B wt, OptoNAM-3 365 nm PSS, [OptoNAM-3] 2 µM, read-out: Relative current (IOpto/I0)): 43.3%
remaining activity at 3 µM [2]: 37.5%
remaining activity at 5 µM [2]: 26.7%
remaining activity at 30 µM [2]: 3.4%
remaining activity at 0.025 µM [3]: 88.7%
remaining activity at 0.05 µM [3]: 82.7%
remaining activity at 0.125 µM (GluN1/GluN2B wt, OptoNAM-3 dark PSS (trans), [OptoNAM-3] 0.125 µM, read-out: Relative current (IOpto/I0)): 75.8%
remaining activity at 0.22 µM [3]: 59.2%
remaining activity at 0.3 µM (GluN1/GluN2B wt, OptoNAM-3 dark PSS (trans), [OptoNAM-3] 0.3 µM (Sup. Fig. 3A/B/E), read-out: Relative current (IOpto/I0)): 58.1%
remaining activity at 1 µM [3]: 30.7%
remaining activity at 2 µM (GluN1/GluN2B wt, OptoNAM-3 dark PSS (trans), [OptoNAM-3] 2 µM (Sup. Fig. 3A/B/E), read-out: Relative current (IOpto/I0)): 14.1%
remaining activity at 3 µM [3]: 9.8%
remaining activity at 5 µM [3]: 9.2%
remaining activity at 30 µM [3]: 0.423%
Relative current for theoretical DRC 9% trans (GluN1/GluN2B wt, [OptoNAM-3] 0.125 µM): 0.958
Relative current for theoretical DRC 9% trans (GluN1/GluN2B wt, [OptoNAM-3] 0.3 µM): 0.913
Relative current for theoretical DRC 9% trans (GluN1/GluN2B wt, [OptoNAM-3] 0.47 µM): 0.875
